Assay: in vitro
Conditions: for Measured concentration of analyte PEA, 0 min / Measured concentration of analyte PEA, 10 min / Measured concentration of analyte PEA, 20 min / Measured concentration of analyte PEA, 30 min / Measured concentration of analyte PEA, 60 min / % Remaining of Initial, 0 min / % Remaining of Initial, 10 min / % Remaining of Initial, 20 min / % Remaining of Initial, 30 min / % Remaining of Initial, 60 min / Concentration, analyte PEA / % Remaining of Initial (n = 1) / Measured concentration of PEA (analyte) / % Remaining of Initial: 1 μM; for % Remaining of Initial, 0 min / % Remaining of Initial, 10 min / % Remaining of Initial, 20 min / % Remaining of Initial, 30 min / % Remaining of Initial, 60 min / microsomal CLint at 1 μM / half-life at 1 μM / % Remaining of Initial (n = 1) / % Remaining of Initial: microsomes
Protocol: The reaction mixture, minus cofactors, was prepared as described below. The test article was added into the reaction mixture at a final concentration of 1 μM. […] An aliquot of the reaction mixture (without cofactor) was equilibrated in a shaking water bath at 37° C. for 3 minutes. The reaction was initiated by the addition of cofactor, and the mixture was incubated in a shaking water bath at 37° C. Aliquots (100 μL) were withdrawn at 0, 10, 20, 30, and 60 minutes. All samples were immediately combined with 400 μL of ice-cold 50/50 acetonitrile/H2O containing 0.1% formic acid and internal standard to terminate the reaction. The samples were then mixed and centrifuged to precipitate proteins. Calibration standards were prepared in matched matrix. All samples and standards were assayed by LC-MS/MS using electrospray ionization for both the dosed prodrug I-9 and the expected drug (PEA). Analytical conditions are outlined in Appendix 4-1. The test article concentration at each time point was compared to the test article concentration at time 0 to determine the percent remaining at each time point. Half-lives were calculated using GraphPad software, fitting to a single-phase exponential decay equation.
Reaction mixture, minus cofactors, was prepared as described below. Test article was added into the reaction mixture at a final concentration of 1 μM. […] An aliquot of the reaction mixture (without cofactor) was equilibrated in a shaking water bath at 37° C. for 3 minutes. The reaction was initiated by the addition of cofactor, and the mixture was incubated in a shaking water bath at 37° C. Aliquots (100 μL) were withdrawn at 0, 10, 20, 30, and 60 minutes. Test article samples were immediately combined with 300 μL of ice-cold acetonitrile containing 1% formic acid. Control samples were immediately combined with 400 μL of ice-cold 50/50 acetonitrile (ACN)/dH2O containing 0.1% formic acid and internal standard to terminate the reaction. Samples were then mixed and centrifuged to precipitate proteins. Calibration standards were prepared in matched matrix. Samples and standards were assayed by LC-MS/MS using electrospray ionization for both dosed prodrug and expected drug (PEA). Analytical conditions are outlined in Appendix 8-1. Test article concentration at each time point was compared to test article concentration at time 0 to determine the percent remaining at each time point. Half-lives were calculated using GraphPad software, fitting to a single-phase exponential decay equation.
Reaction mixture, minus cofactors, was prepared as described below. Test article was added into the reaction mixture at a final concentration of 1 μM. […] An aliquot of the reaction mixture (without cofactor) was equilibrated in a shaking water bath at 37° C. for 5 minutes. Reaction was initiated by the addition of cofactor, and the mixture was incubated in a shaking water bath at 37° C. Aliquots (100 μL) were withdrawn at 0, 10, 20, 30, and 60 minutes. Test article samples were immediately combined with 300 μL of ice-cold acetonitrile containing 1% formic acid. Control samples were immediately combined with 400 μL of ice-cold 50/50 acetonitrile (ACN)/dH2O containing 0.1% formic acid and internal standard to terminate the reaction. Samples were then mixed and centrifuged to precipitate proteins. Calibration standards were prepared in matched matrix. Samples and standards were assayed by LC-MS/MS using electrospray ionization for both the dosed prodrug and the expected drug (PEA). Analytical conditions are outlined in Appendix 10-1. Test article concentration at each time point was compared to the test article concentration at time 0 to determine the percent remaining at each time point. Half-lives were calculated using GraphPad software, fitting to a single-phase exponential decay equation.
Reaction mixture, minus cofactors, was prepared as described below. Test article was added into the reaction mixture at a final concentration of 1 μM.

[1] = male, Sprague-Dawley, rat, 0 min
[2] = male, Sprague-Dawley, rat, 10 min
[3] = male, Sprague-Dawley, rat, 20 min
[4] = male, Sprague-Dawley, rat, 30 min
[5] = male, Sprague-Dawley, rat, 60 min
[6] = male, Sprague-Dawley, rat, 0.5 h
[7] = both, human, calculated value in parentheses
[8] = male, Sprague-Dawley, rat, calculated value in parentheses

SMILES: CCCCCCCCCCCCCCCC(=O)NCCOC(=O)CCC(=O)OCC(COC(=O)CCC)OC(=O)CCC (stereo not shown) [Compound I-11]
- Measured concentration of analyte PEA, 0 min (both, human, 0 min): 0.046 µM
- Measured concentration of analyte PEA, 10 min (both, human, 10 min): 0.29 µM
- Measured concentration of analyte PEA, 20 min (both, human, 20 min): 0.20 µM
- Measured concentration of analyte PEA, 30 min (both, human, 30 min): 0.16 µM
- Measured concentration of analyte PEA, 60 min (both, human, 60 min): 0.057 µM
- % Remaining of Initial, 0 min (both, human, 0 h): 100%
- % Remaining of Initial, 10 min (both, human, 10 min): 3.1%
- % Remaining of Initial, 20 min (both, human, 20 min): <1.0%
- % Remaining of Initial, 30 min (both, human, 0.5 h): <1.0%
- % Remaining of Initial, 60 min (both, human, 1 h): <1.0%
- microsomal CLint at 1 μM (both, human): 696 µL/min/mg
- half-life at 1 μM (both, human): 2 min
- Measured concentration of analyte PEA, 0 min [1]: 0.023 µM
- Measured concentration of analyte PEA, 10 min [2]: 0.048 µM
- Measured concentration of analyte PEA, 20 min [3]: 0.031 µM
- Measured concentration of analyte PEA, 30 min [4]: 0.0086 µM
- Measured concentration of analyte PEA, 60 min [5]: 0 µM
- % Remaining of Initial, 0 min (male, Sprague-Dawley, rat, 0 h): 100%
- % Remaining of Initial, 10 min [2]: 3.3%
- % Remaining of Initial, 20 min [3]: <1.0%
- % Remaining of Initial, 30 min [6]: <1.0%
- % Remaining of Initial, 60 min (male, Sprague-Dawley, rat, 1 h): <1.0%
- microsomal CLint at 1 μM (male, Sprague-Dawley, rat): 681 µL/min/mg
- half-life at 1 μM (male, Sprague-Dawley, rat): 2 min

SMILES: CCCCC/C=C\C/C=C\CCCCCCCC(=O)OCC(COC(=O)CCC(=O)OCCNC(=O)CCCCCCCCCCCCCCC)OC(=O)CCCCCCC/C=C\C/C=C\CCCCC (stereo not shown) [Compound I-13]
- Concentration, analyte PEA (both, human, 0 min): 0 nM
- Concentration, analyte PEA (both, human, 10 min): 0 nM
- Concentration, analyte PEA (both, human, 20 min): 0 nM
- Concentration, analyte PEA (both, human, 30 min): 0 nM
- Concentration, analyte PEA (both, human, 60 min): 0 nM
- % Remaining of Initial (n = 1) (both, human, 0 h): 100%
- % Remaining of Initial (n = 1) (both, human, 10 min): 79%
- % Remaining of Initial (n = 1) (both, human, 20 min): 73%
- % Remaining of Initial (n = 1) (both, human, 0.5 h): 60%
- % Remaining of Initial (n = 1) (both, human, 1 h): 42%
- microsomal CLint at 1 μM (both, human): 29.6 µL/min/mg
- half-life at 1 μM (both, human): 47 min
- Concentration, analyte PEA [1]: 0 nM
- Concentration, analyte PEA [2]: 0 nM
- Concentration, analyte PEA [3]: 13 nM
- Concentration, analyte PEA [4]: 13 nM
- Concentration, analyte PEA [5]: 0 nM
- % Remaining of Initial (n = 1) (male, Sprague-Dawley, rat, 0 h): 100%
- % Remaining of Initial (n = 1) [2]: 91%
- % Remaining of Initial (n = 1) [3]: 72%
- % Remaining of Initial (n = 1) [6]: 60%
- % Remaining of Initial (n = 1) (male, Sprague-Dawley, rat, 1 h): 38%
- microsomal CLint at 1 μM (male, Sprague-Dawley, rat): 33.6 µL/min/mg
- half-life at 1 μM (male, Sprague-Dawley, rat): 41 min

SMILES: CCCCCCCCCCCCCCCC(=O)NCCOC(=O)CCC(=O)OC(COC(=O)CCC)COC(=O)CCC [Compound I-16]
- Measured concentration of PEA (analyte) (both, human, 0 min): 0 µM
- Measured concentration of PEA (analyte) (both, human, 10 min): 0.22 µM
- Measured concentration of PEA (analyte) (both, human, 20 min): 0.15 µM
- Measured concentration of PEA (analyte) (both, human, 30 min): 0.14 µM
- Measured concentration of PEA (analyte) (both, human, 60 min): 0.069 µM
- % Remaining of Initial (both, human, 0 h): 100%
- % Remaining of Initial (both, human, 10 min): 8.0%
- % Remaining of Initial (both, human, 20 min): 3.5%
- % Remaining of Initial (both, human, 0.5 h): 1.9%
- % Remaining of Initial (both, human, 1 h): <1.0%
- microsomal CLint at 1 μM (both, human): > 139 µL/min/mg
- microsomal CLint at 1 μM [7]: 493 µL/min/mg
- half-life at 1 μM (both, human): < 10 min
- half-life at 1 μM [7]: 2.8 min
- Measured concentration of PEA (analyte) [1]: 0.025 µM
- Measured concentration of PEA (analyte) [2]: 0.033 µM
- Measured concentration of PEA (analyte) [3]: 0.015 µM
- Measured concentration of PEA (analyte) [4]: 0 µM
- Measured concentration of PEA (analyte) [5]: 0 µM
- % Remaining of Initial (male, Sprague-Dawley, rat, 0 h): 100%
- % Remaining of Initial [2]: 9.7%
- % Remaining of Initial [3]: 4.2%
- % Remaining of Initial [6]: 3.1%
- % Remaining of Initial (male, Sprague-Dawley, rat, 1 h): <1.0%
- microsomal CLint at 1 μM (male, Sprague-Dawley, rat): > 139 µL/min/mg
- microsomal CLint at 1 μM [8]: 452 µL/min/mg
- half-life at 1 μM (male, Sprague-Dawley, rat): < 10 min
- half-life at 1 μM [8]: 3.1 min
